Results as given in PubChem BioAssay AID328 (DTP/NCI, 2004).
Values joined by “and” are separate entries in the source; they are usually repeats but may differ in a detail not shown here. Equal values may be shown once. Inconclusive results and toxic doses are left out. The calls were made as follows: active = survival T/C of 150% or more; inactive = T/C below 125% in these data.

System: BDF1 mice, P388 leukemia ip, median survival T/C
Assay: NCI In Vivo Anticancer Drug Screen. Data for tumor model P388 Leukemia (intraperitoneal) in B6D2F1 (BDF1) mice
Conditions: endpoint: median survival time, higher = longer survival
Summary of the method: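 Mice carrying the transplantable tumour receive compound or vehicle. Survival is followed in each arm, and the treated measure is divided by the vehicle measure.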

[1] = dose: 50.0 mg/kg/injection, schedule: Q01DX009 (ip), vehicle: saline with Tween-80
[2] = dose: 100.0 mg/kg/injection, schedule: Q01DX009 (ip), vehicle: saline with Tween-80
[3] = dose: 100.0 mg/kg/injection, schedule: Q04DX003 (ip), vehicle: saline with Tween-80
[4] = dose: 200.0 mg/kg/injection, schedule: Q01DX009 (ip), vehicle: saline with Tween-80
[5] = dose: 200.0 mg/kg/injection, schedule: Q04DX003 (ip), vehicle: saline with Tween-80
[6] = dose: 25.0 mg/kg/injection, schedule: Q01DX009 (ip), vehicle: saline with Tween-80
[7] = dose: 400.0 mg/kg/injection, schedule: Q01DX009 (ip), vehicle: saline with Tween-80
[8] = dose: 400.0 mg/kg/injection, schedule: Q04DX003 (ip), vehicle: saline with Tween-80

Measured: T/C

CC1=CC(=O)[C@@H](O)[C@]2(C)[C@H]3[C@@]4(O)OC[C@]35[C@H]([C@@H](C)[C@H]4O)[C@@H](O)C(=O)O[C@@H]5C[C@@H]12
active: dose: 1.0 mg/kg/injection, schedule: Q01DX010 (ip), vehicle: steriod suspending solution 150 % of control | dose: 8.0 mg/kg/injection, schedule: Q01DX010 (ip), vehicle: steriod suspending solution 150 % of control
inactive: dose: 1.5 mg/kg/injection, schedule: Q01DX010 (ip), vehicle: acetone 100 % of control | dose: 2.0 mg/kg/injection, schedule: Q01DX010 (ip), vehicle: steriod suspending solution 107 % of control | dose: 3.0 mg/kg/injection, schedule: Q01DX010 (ip), vehicle: acetone 103 % of control | dose: 4.0 mg/kg/injection, schedule: Q01DX010 (ip), vehicle: steriod suspending solution 107 % of control | dose: 6.0 mg/kg/injection, schedule: Q01DX010 (ip), vehicle: acetone 115 % of control | dose: 12.0 mg/kg/injection, schedule: Q01DX010 (ip), vehicle: acetone 123 % of control

Nc1cc(Cl)c2[nH]cnc2n1
inactive: dose: 6.25 mg/kg/injection, schedule: Q01DX009 (ip), vehicle: saline 114 % of control | dose: 12.5 mg/kg/injection, schedule: Q01DX009 (ip), vehicle: saline 100 % of control | dose: 25.0 mg/kg/injection, schedule: Q01DX009 (ip), vehicle: saline 110 % of control | dose: 50.0 mg/kg/injection, schedule: Q01DX005 (ip), vehicle: distilled water + Tween-80 105 % of control | dose: 50.0 mg/kg/injection, schedule: Q01DX009 (ip), vehicle: saline 115 % of control | dose: 100.0 mg/kg/injection, schedule: Q01DX009 (ip), vehicle: saline 100 % of control

C[C@]12C=CC(=O)C=C1CC[C@@H]1[C@@H]2CC[C@]2(C)OC(=O)CC[C@@H]12
inactive: [1] 100 % of control | [2] 86 % of control | [3] 90 % of control | [4] 90 % of control | [5] 90 % of control

Nc1ccc(OCCCCNC(=O)c2ccc(S(=O)(=O)F)cc2)c(Cl)c1
inactive: dose: 0.78 mg/kg/injection, schedule: Q01DX009 (ip), vehicle: saline with Tween-80 94 % of control | dose: 1.56 mg/kg/injection, schedule: Q01DX009 (ip), vehicle: saline with Tween-80 111 % of control | dose: 3.12 mg/kg/injection, schedule: Q01DX009 (ip), vehicle: saline with Tween-80 102 % of control | dose: 6.25 mg/kg/injection, schedule: Q01DX009 (ip), vehicle: saline with Tween-80 100 % of control | dose: 12.5 mg/kg/injection, schedule: Q01DX009 (ip), vehicle: saline with Tween-80 102 % of control | [6] 86 % of control and 100 % of control and 115 % of control | [1] 110 % of control | [2] 117 % of control | [3] 103 % of control | [4] 110 % of control | [5] 99 % of control

O=C(OC1C2C=CC(C(O)O2)C1c1ccccc1)c1ccc(Cl)cc1 (stereo not drawn)
inactive: dose: 100.0 mg/kg/injection, schedule: Q01DX001 (ip), vehicle: saline with Tween-80 94 % of control | dose: 200.0 mg/kg/injection, schedule: Q01DX001 (ip), vehicle: saline with Tween-80 92 % of control

N#CCC(N)=C(C#N)C#N
inactive: dose: 25.0 mg/kg/injection, schedule: Q01DX009 (ip), vehicle: Klucel (hydroxypropylcellulose) (HPC) 100 % of control | dose: 25.0 mg/kg/injection, schedule: Q04DX003 (ip), vehicle: Klucel (hydroxypropylcellulose) (HPC) 95 % of control | dose: 50.0 mg/kg/injection, schedule: Q01DX009 (ip), vehicle: Klucel (hydroxypropylcellulose) (HPC) 87 % of control | dose: 50.0 mg/kg/injection, schedule: Q04DX003 (ip), vehicle: Klucel (hydroxypropylcellulose) (HPC) 104 % of control | dose: 100.0 mg/kg/injection, schedule: Q01DX009 (ip), vehicle: Klucel (hydroxypropylcellulose) (HPC) 95 % of control | dose: 100.0 mg/kg/injection, schedule: Q04DX003 (ip), vehicle: Klucel (hydroxypropylcellulose) (HPC) 100 % of control and 104 % of control

NC(N)=Nc1ccc(OC(=O)c2ccc(N=C(N)N)cc2)cc1
inactive: dose: 1.56 mg/kg/injection, schedule: Q01DX009 (ip), vehicle: water 106 % of control | dose: 3.12 mg/kg/injection, schedule: Q01DX009 (ip), vehicle: water 94 % of control | dose: 6.25 mg/kg/injection, schedule: Q01DX009 (ip), vehicle: water 103 % of control | dose: 12.5 mg/kg/injection, schedule: Q01DX009 (ip), vehicle: water 110 % of control | dose: 25.0 mg/kg/injection, schedule: Q01DX009 (ip), vehicle: water 103 % of control

O=S1(=O)CC(N2CCCCC2)C2=C(CCN(c3ccccc3)C2)O1 (stereo not drawn)
inactive: dose: 100.0 mg/kg/injection, schedule: Q04DX002 (ip), vehicle: saline with Tween-80 112 % of control | dose: 200.0 mg/kg/injection, schedule: Q04DX002 (ip), vehicle: saline with Tween-80 95 % of control | dose: 400.0 mg/kg/injection, schedule: Q04DX002 (ip), vehicle: saline with Tween-80 98 % of control

O=C1C(Cl)=C(Cl)C(=O)C2CC=CCC12 (stereo not drawn)
inactive: dose: 3.13 mg/kg/injection, schedule: Q01DX001 (ip), vehicle: saline with Tween-80 95 % of control | dose: 6.25 mg/kg/injection, schedule: Q01DX001 (ip), vehicle: saline with Tween-80 114 % of control

COc1cc(/C=C/C(=O)O)ccc1OC(C)=O
inactive: dose: 100.0 mg/kg/injection, schedule: Q01DX001 (ip), vehicle: saline 100 % of control | dose: 200.0 mg/kg/injection, schedule: Q01DX001 (ip), vehicle: saline 100 % of control | dose: 400.0 mg/kg/injection, schedule: Q01DX001 (ip), vehicle: saline 100 % of control

Cc1cc(C)nc(NS(=O)(=O)c2ccc(NC(=O)C(Cl)(Cl)Cl)cc2)n1
inactive: dose: 100.0 mg/kg/injection, schedule: Q01DX005 (ip), vehicle: saline with Tween-80 93 % of control | dose: 200.0 mg/kg/injection, schedule: Q01DX005 (ip), vehicle: saline with Tween-80 88 % of control

Cc1ccc(C2(C#N)CCCCC2)cc1
inactive: dose: 66.0 mg/kg/injection, schedule: Q01DX009 (ip), vehicle: saline with Tween-80 116 % of control | [2] 120 % of control | [3] 100 % of control | dose: 150.0 mg/kg/injection, schedule: Q01DX009 (ip), vehicle: saline with Tween-80 112 % of control | [4] 108 % of control | [5] 108 % of control | [7] 116 % of control | [8] 112 % of control

O=c1n(CCCl)c(=O)n(CCCl)c(=O)n1CCCl
inactive: [2] 110 % of control | [3] 100 % of control | [4] 110 % of control | [5] 104 % of control | [7] 100 % of control | [8] 104 % of control

C=C(CC(N)=O)C(=O)O (tested in a mixture with another compound)
inactive: dose: 88.0 mg/kg/injection, schedule: Q01DX003 (ip), vehicle: saline 109 % of control and 113 % of control | dose: 177.0 mg/kg/injection, schedule: Q01DX003 (ip), vehicle: saline 109 % of control and 122 % of control | dose: 266.0 mg/kg/injection, schedule: Q01DX003 (ip), vehicle: saline 109 % of control and 122 % of control | dose: 400.0 mg/kg/injection, schedule: Q01DX003 (ip), vehicle: saline 118 % of control and 122 % of control | dose: 600.0 mg/kg/injection, schedule: Q01DX003 (ip), vehicle: saline 118 % of control

CCOC(=O)C(CC)(CCC(C)C)C(=O)OCC
inactive: [6] 95 % of control | [1] 95 % of control | [2] 100 % of control

CCC12C=CCN3CCC4(c5ccc(OC)cc5N(C)C4C(O)(C(=O)OC)C1OC(C)=O)C32 (stereo not drawn) (tested in a mixture with another compound)
inactive: dose: 0.06 mg/kg/injection, schedule: Q01DX009 (ip), vehicle: water 86 % of control and 95 % of control | dose: 0.12 mg/kg/injection, schedule: Q01DX009 (ip), vehicle: water 90 % of control | dose: 0.25 mg/kg/injection, schedule: Q01DX009 (ip), vehicle: water 86 % of control and 104 % of control | dose: 0.5 mg/kg/injection, schedule: Q01DX009 (ip), vehicle: water 90 % of control | dose: 1.0 mg/kg/injection, schedule: Q01DX009 (ip), vehicle: water 86 % of control and 90 % of control | dose: 2.0 mg/kg/injection, schedule: Q01DX009 (ip), vehicle: water 100 % of control and 90 % of control

C(=N\Nc1nnn(Cc2ccccc2)n1)/c1ccccc1
inactive: [3] 90 % of control | [5] 95 % of control | [8] 95 % of control

CO/N=C/c1cccnc1
inactive: dose: 50.0 mg/kg/injection, schedule: Q01DX005 (ip), vehicle: saline 101 % of control | dose: 100.0 mg/kg/injection, schedule: Q01DX005 (ip), vehicle: saline 105 % of control

C[C@H]1C[C@@H]2[C@H]([C@@H](O)C[C@@]3(C)[C@H]2CC[C@]3(O)C(=O)CO)[C@@]2(C)C=CC(=O)C=C12
inactive: [4] 104 % of control | [7] 90 % of control
